Assays:
Experiment in all cases: KINOMEscan
Type in all cases: binding
FGFR3 = biological target: T1, FGFR3 (Homo sapiens, UniProt P22607); conditions: read-out: % control activity remaining
T1 construct: purchased Eurofins DiscoverX KINOMEscan

PIK4CB = biological target: T2, PIK4CB (Homo sapiens, UniProt Q9UBF8); conditions: for remaining binding at 1 µM: read-out: % control activity remaining
T2 construct: purchased Eurofins DiscoverX KINOMEscan

CSF1R-autoinhibited = biological target: T3, CSF1R-autoinhibited (Homo sapiens, UniProt P07333); conditions: read-out: % control activity remaining
T3 construct: purchased Eurofins DiscoverX KINOMEscan
T3 sequence (P07333 539-972 limits assumed): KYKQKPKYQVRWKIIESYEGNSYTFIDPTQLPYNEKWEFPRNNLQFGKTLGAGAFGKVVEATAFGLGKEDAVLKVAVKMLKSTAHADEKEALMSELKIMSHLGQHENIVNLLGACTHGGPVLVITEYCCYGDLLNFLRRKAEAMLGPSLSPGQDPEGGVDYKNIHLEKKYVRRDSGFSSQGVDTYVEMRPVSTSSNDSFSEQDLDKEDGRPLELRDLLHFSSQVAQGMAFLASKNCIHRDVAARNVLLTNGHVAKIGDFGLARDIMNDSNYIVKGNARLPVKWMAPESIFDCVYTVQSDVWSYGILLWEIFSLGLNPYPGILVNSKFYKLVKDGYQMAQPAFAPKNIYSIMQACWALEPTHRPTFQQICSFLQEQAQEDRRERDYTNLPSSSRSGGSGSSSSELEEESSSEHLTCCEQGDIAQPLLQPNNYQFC

PLK4 = biological target: T4, PLK4 (Homo sapiens, UniProt O00444); conditions: read-out: % control activity remaining
T4 construct: purchased Eurofins DiscoverX KINOMEscan
T4 sequence (O00444 1-970): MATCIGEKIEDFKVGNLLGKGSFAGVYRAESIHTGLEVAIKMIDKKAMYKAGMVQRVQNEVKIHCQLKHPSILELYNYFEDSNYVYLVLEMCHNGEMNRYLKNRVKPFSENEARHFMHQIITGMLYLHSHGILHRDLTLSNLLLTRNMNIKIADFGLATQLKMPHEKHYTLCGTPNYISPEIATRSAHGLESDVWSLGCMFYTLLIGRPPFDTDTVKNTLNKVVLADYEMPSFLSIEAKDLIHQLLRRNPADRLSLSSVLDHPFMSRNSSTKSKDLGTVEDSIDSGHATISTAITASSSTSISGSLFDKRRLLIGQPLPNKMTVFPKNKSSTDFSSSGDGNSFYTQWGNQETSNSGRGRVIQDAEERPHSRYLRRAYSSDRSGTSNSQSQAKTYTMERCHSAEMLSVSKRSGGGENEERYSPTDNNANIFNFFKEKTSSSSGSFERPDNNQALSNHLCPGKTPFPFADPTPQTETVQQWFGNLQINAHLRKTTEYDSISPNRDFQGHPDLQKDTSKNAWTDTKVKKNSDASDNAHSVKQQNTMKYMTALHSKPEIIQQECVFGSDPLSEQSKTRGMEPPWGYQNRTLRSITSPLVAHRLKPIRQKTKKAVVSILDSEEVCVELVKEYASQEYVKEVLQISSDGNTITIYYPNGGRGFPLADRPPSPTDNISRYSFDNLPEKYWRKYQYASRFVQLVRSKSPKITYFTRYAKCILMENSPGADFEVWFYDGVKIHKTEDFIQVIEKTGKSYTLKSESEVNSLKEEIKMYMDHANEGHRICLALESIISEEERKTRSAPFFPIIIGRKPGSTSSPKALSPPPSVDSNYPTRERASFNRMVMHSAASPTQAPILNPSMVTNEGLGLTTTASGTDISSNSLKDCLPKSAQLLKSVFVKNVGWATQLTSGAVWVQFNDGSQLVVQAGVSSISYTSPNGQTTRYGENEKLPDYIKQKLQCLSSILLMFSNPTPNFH

PRKCQ = biological target: T5, PRKCQ (Homo sapiens, UniProt Q04759); conditions: read-out: % control activity remaining
T5 construct: purchased Eurofins DiscoverX KINOMEscan

MUSK = biological target: T6, MUSK (Homo sapiens, UniProt O15146); conditions: read-out: % control activity remaining
T6 construct: purchased Eurofins DiscoverX KINOMEscan
T6 sequence (O15146 24-869): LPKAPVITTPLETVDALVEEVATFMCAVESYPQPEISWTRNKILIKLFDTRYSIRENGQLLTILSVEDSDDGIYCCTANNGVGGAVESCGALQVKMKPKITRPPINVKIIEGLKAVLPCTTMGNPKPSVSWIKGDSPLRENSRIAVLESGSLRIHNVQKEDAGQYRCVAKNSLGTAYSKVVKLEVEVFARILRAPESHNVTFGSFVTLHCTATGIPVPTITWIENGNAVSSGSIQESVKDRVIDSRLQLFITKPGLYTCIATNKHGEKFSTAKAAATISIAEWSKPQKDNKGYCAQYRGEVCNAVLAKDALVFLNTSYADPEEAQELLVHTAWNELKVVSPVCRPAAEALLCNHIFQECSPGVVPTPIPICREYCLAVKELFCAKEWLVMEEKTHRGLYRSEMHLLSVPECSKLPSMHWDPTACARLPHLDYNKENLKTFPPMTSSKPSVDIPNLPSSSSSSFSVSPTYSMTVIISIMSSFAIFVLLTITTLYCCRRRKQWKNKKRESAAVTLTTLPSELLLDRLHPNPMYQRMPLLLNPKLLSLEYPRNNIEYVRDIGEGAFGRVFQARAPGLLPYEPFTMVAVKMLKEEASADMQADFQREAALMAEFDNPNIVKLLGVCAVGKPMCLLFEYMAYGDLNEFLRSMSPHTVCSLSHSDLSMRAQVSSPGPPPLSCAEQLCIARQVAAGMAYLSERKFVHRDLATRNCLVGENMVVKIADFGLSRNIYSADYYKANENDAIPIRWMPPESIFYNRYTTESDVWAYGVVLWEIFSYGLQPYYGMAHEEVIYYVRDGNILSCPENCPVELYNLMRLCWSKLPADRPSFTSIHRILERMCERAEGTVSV

MRCKB = biological target: T7, MRCKB (Homo sapiens, UniProt Q9Y5S2); conditions: read-out: % control activity remaining
T7 construct: purchased Eurofins DiscoverX KINOMEscan

PLK3 = biological target: T8, PLK3 (Homo sapiens, UniProt Q9H4B4); conditions: read-out: % control activity remaining
T8 construct: purchased Eurofins DiscoverX KINOMEscan

CAMK2A = biological target: T9, CAMK2A (Homo sapiens, UniProt Q9UQM7); conditions: read-out: % control activity remaining
T9 construct: purchased Eurofins DiscoverX KINOMEscan
T9 sequence (Q9UQM7 whole entry): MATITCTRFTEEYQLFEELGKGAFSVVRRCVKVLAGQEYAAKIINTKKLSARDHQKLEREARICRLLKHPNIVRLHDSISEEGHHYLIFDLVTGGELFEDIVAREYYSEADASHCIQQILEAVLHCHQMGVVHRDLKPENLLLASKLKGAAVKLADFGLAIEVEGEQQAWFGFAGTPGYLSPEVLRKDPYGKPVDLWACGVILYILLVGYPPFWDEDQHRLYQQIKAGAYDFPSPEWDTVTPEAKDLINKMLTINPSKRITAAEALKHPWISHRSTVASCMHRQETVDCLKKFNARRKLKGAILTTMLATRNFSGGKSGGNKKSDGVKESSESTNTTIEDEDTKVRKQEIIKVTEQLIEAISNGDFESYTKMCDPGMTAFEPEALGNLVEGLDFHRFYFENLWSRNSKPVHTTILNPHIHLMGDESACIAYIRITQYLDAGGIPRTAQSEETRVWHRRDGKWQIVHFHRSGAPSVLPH

T1 sequence (P22607 23-806): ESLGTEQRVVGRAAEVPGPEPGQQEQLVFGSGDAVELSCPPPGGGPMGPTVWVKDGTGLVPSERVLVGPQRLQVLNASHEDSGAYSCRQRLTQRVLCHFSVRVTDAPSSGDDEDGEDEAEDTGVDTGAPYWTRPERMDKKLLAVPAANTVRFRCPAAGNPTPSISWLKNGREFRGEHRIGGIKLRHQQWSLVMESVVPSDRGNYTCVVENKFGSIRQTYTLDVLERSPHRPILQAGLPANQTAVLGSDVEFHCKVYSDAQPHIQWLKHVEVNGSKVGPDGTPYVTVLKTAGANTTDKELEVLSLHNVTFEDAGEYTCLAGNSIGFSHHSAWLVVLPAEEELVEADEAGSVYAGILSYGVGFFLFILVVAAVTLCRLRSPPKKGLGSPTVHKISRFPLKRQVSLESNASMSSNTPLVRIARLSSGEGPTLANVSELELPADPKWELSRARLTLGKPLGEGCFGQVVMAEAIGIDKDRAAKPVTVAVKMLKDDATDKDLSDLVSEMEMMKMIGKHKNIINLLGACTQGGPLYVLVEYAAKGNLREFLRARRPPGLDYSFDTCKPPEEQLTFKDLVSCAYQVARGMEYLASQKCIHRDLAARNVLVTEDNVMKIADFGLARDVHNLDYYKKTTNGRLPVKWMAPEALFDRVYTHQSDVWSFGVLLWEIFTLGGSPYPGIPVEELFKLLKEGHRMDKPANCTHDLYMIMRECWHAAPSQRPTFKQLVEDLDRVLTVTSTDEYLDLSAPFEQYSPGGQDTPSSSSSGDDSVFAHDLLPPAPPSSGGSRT
T5 sequence (Q04759 whole entry): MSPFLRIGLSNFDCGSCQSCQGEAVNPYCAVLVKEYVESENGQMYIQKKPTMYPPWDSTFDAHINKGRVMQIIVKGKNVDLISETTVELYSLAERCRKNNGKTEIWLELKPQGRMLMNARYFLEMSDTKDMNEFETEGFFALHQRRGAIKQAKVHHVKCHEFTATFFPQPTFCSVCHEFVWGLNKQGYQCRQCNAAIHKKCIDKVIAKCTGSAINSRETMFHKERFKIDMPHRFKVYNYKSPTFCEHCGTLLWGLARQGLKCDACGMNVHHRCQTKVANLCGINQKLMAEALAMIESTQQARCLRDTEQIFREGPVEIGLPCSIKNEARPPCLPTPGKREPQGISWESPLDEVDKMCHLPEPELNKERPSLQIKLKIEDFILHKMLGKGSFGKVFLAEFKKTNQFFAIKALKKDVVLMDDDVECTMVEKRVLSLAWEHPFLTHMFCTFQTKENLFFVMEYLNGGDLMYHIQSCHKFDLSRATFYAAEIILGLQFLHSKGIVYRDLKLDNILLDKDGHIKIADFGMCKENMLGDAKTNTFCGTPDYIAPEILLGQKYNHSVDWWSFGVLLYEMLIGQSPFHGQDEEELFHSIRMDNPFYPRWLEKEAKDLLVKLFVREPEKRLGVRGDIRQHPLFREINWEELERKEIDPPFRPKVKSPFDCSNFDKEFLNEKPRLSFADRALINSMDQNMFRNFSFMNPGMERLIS
T7 sequence (Q9Y5S2 whole entry): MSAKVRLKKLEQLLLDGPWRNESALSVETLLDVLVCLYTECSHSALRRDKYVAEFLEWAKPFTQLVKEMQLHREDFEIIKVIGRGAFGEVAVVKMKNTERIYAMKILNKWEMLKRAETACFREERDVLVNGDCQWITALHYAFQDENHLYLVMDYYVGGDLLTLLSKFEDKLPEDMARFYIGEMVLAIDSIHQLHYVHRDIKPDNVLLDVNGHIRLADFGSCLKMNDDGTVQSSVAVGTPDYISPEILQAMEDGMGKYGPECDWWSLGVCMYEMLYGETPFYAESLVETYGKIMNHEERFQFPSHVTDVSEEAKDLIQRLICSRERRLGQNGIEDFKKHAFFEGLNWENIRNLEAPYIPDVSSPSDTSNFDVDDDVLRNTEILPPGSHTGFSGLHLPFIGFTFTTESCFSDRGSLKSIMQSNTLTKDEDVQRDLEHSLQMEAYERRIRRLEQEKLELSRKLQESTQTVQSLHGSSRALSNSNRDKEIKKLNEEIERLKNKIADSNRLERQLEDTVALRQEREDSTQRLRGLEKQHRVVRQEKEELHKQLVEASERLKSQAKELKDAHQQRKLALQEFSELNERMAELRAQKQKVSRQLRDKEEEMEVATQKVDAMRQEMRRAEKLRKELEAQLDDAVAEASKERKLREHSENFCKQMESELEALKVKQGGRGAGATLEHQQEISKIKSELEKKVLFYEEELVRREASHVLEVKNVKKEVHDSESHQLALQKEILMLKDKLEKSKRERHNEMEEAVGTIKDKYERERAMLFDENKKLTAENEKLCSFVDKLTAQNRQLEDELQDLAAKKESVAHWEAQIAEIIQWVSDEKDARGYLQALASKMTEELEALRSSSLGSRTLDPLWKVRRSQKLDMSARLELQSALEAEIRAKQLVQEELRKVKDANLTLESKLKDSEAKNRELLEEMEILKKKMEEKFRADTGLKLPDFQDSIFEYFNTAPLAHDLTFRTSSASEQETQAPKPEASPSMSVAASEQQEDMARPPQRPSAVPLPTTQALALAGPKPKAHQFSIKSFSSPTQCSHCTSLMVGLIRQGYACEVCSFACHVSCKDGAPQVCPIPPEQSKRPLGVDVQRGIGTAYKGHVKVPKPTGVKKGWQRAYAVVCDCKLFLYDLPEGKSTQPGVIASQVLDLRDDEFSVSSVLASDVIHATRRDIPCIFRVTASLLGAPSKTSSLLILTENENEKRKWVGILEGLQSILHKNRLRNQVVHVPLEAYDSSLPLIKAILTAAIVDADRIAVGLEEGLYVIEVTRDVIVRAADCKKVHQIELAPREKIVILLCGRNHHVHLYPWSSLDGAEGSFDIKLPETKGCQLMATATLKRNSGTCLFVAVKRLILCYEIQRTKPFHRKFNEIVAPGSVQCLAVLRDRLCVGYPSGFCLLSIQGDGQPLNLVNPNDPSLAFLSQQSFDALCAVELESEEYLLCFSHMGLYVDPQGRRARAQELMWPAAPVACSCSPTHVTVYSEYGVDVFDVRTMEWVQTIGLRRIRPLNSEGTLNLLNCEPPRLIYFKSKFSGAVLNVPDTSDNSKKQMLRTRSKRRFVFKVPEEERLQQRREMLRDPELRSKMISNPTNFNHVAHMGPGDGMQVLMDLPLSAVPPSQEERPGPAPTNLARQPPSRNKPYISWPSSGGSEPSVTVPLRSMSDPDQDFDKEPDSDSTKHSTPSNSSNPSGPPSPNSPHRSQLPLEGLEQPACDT
T8 sequence (Q9H4B4 whole entry): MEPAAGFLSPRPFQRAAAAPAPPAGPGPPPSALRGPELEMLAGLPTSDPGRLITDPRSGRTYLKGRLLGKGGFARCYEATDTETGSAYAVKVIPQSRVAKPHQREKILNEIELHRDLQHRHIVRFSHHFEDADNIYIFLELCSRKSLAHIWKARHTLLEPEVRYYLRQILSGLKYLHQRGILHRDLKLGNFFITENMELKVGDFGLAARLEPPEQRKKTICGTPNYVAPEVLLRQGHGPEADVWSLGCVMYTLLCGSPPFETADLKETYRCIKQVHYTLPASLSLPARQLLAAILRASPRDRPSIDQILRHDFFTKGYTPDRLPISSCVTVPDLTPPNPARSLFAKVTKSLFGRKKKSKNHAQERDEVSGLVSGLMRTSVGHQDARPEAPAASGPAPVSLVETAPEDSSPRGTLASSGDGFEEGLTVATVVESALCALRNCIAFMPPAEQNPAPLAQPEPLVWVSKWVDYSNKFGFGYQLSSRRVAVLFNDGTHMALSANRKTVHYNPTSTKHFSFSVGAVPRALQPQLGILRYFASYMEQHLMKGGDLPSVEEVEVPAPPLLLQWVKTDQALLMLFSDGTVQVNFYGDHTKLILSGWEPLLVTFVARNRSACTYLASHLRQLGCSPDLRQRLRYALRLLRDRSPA

Clc1cc(NCC2CC2)c2ncc(-c3ccc4[nH]ncc4c3)n2n1 [compound 2, 6-Chloro-N-(cyclopropylmethyl)-3-(1H-indazol-5-yl)imidazo[1,2-b]pyridazin-8-amine]
remaining binding at 1 µM (FGFR3): 90% | remaining binding at 1 µM (PIK4CB): 3.3% | inhibition at 1 µM (PIK4CB; read-out: Probe binding inhibited): > 90% | remaining binding at 1 µM (CSF1R-autoinhibited): 98% | remaining binding at 1 µM (PLK4): 87% | remaining binding at 1 µM (PRKCQ): 94% | remaining binding at 1 µM (MUSK): 72% | remaining binding at 1 µM (MRCKB): 64% | remaining binding at 1 µM (PLK3): 90% | remaining binding at 1 µM (CAMK2A): 100%

O=C(CN1CCOCC1)N[C@H]1CC[C@H](Nc2cc(Cl)nn3c(-c4ccc5[nH]ncc5c4)cnc23)CC1 [compound 26]
remaining binding at 1 µM (FGFR3): 94% | remaining binding at 1 µM (PIK4CB): 21% | remaining binding at 1 µM (CSF1R-autoinhibited): 91% | remaining binding at 1 µM (PLK4): 100% | remaining binding at 1 µM (PRKCQ): 85% | remaining binding at 1 µM (MUSK): 42% | remaining binding at 1 µM (MRCKB): 97% | remaining binding at 1 µM (PLK3): 89% | remaining binding at 1 µM (CAMK2A): 47%

CN1CCC(CNc2cc(Cl)nn3c(-c4cc5nc(Nc6ccccc6)[nH]c5cc4F)cnc23)CC1 [compound 31, 6-Chloro-3-(6-fluoro-2-(phenylamino)-1H-benzo[d]imidazol-5-yl)-N-((1-methylpiperidin-4-yl)methyl)imidazo[1,2-b]pyridazin-8-amine]
remaining binding at 1 µM (FGFR3): 91% | remaining binding at 1 µM (PIK4CB): 73% | remaining binding at 1 µM (CSF1R-autoinhibited): 100% | remaining binding at 1 µM (PLK4): 99% | remaining binding at 1 µM (PRKCQ): 100% | remaining binding at 1 µM (MUSK): 40% | remaining binding at 1 µM (MRCKB): 100% | remaining binding at 1 µM (PLK3): 90% | remaining binding at 1 µM (CAMK2A): 99%
